pIC50: −log10 of the molar value. Read-outs that look alike come from different tables or passages of the source.
Assays:
[1] = tested on: ACTA2-promoter-driven-luciferase in NIH3T3 cells; experiment: NIH3T3 Acta2-promoter driven-luciferase assay; format: cell-based; details: Mus musculus, plus TGFβ1, 24 hr, read-out: NIH3T3, Acta2-luc, IC50
Procedure: NIH3T3 cells Acta2-promoter driven-luciferase assay: A NIH3T3 cell line stably expressing a luciferase reporter driven by the human ACTA2 gene promoter (−1000-1 bp) was established (NIH3T3-Acta2-luciferase). The cells were plated to confluence and treated with the test compounds plus TGFβ1 for 24 hr. Cells were then lysed and luciferase activity was measured using the LightSwitch luciferase kit from Active Motif.
ROCK inhibitors can be effectively rank ordered by ACTA2-promoter-driven-luciferase reporter cell assay. NIH3T3 cells stably expressing ACTA2-promoter-driven-luciferase were applied to measure ROCK compounds functional IC50's in cells. Cells were plated in 96 well plates to confluence and treated with 9 points serial dilution of compounds in combination with TGFβ1 for 24 hr. Luciferase activities were measured and compound's IC50's were calculated using the nonlinear regression curve fit function of the GraphPad Prism software. Compounds of the invention gave in cell IC50's under 200 nM, see FIG. 1c.

[2] = molecular target: recombinant ROCK2 (amino acids 1-552) (Homo sapiens (Human), UniProt O75116); experiment: Z'-lyte kinase assay, ROCK2; format: biochemical; details: for inhibition at 0.5 µM: read-out: ROCK2 % inh (0.5 μM)
Procedure: (§1) Determination of compounds ROCK inhibitory activity in vitro (Z'lyte assay): recombinant ROCK1 (amino acids 1-535) and ROCK2 (amino acids 1-552) proteins were purchased from ThermoFisher Scientific. Compounds activities were measured by Z'-lyte kinase kit (ThermoFisher Scientific) and IC50s were calculated.
(§2) Compounds activities were measured by Z'-lyte kinase kit (ThermoFisher Scientific). […] IC50s were calculated using the GraphPad Prism software with kinase activities data that were collected from 9 points serial dilution of compounds treatment. The ROCK inhibition in A7R5 cells and NIH3T3 (Acta2-Luc) cells was performed as described above.
(§3) The percent inhibition rate was calculated by normalizing the kinase activity value obtained with compound treatment against DMSO control value and then applied to the equation, […]. IC50's were calculated using the nonlinear regression curve fit function of the GraphPad Prism software with kinase activities data measured with 9 points 2-fold serial dilution of compounds treatment.

[3] = molecular target: recombinant ROCK1 (amino acids 1-535) (Homo sapiens (Human), UniProt Q13464); experiment: Z'-lyte kinase assay, ROCK1; format: biochemical; details: for inhibition at 0.5 µM: read-out: ROCK1 % inh (0.5 μM)
Procedure: as §1, §2, §3

[4] = tested on: ppMlc (T18/S19) levels in A7R5 cells; experiment: A7R5 in-cell ELISA assay (ppMlc); format: cell-based, rat; details: for IC50: Table 2, read-out: pMLC IC50 (nM) A7R5
Procedure: Determination of compounds ROCK inhibitory activity in A7R5 cells: rat aortic smooth muscle cell line A7R5 cells were maintained and treated in DMEM medium with 10% of fetal bovine serum. Cells were seeded with density of 5,000 cells/well in 96-well plates for 24 hours and subsequently treated 90 min with testing compounds. Cells were then fixed and processed according to the In-Cell ELISA Colorimetric Detection Kit manual (Thermo Scientific).
A7R5 cells were treated with 9 points 2 fold serial dilution of compounds and ppMlc (T18/S19) levels were determined in order to calculate the cellular IC50s of the compounds.
An A7R5 in-cell ELISA assay was performed to determine ROCK inhibition of test articles. A7R5 cells were treated with 9 points 2-fold serial dilution of compounds and ppMlc (T18/S19) levels were determined to calculate cellular IC50 values of the compounds. […] A7R5 cells were treated with 9 points 2-fold serial dilution of compounds and ppMlc (T18/S19) levels were determined to calculate cellular IC50 values of the compounds using the nonlinear regression curve fit function of the GraphPad Prism software.

[5] = Rattus norvegicus, A7R5, A7R5 cells

Chain of recombinant ROCK1 (amino acids 1-535) (Q13464 1-535): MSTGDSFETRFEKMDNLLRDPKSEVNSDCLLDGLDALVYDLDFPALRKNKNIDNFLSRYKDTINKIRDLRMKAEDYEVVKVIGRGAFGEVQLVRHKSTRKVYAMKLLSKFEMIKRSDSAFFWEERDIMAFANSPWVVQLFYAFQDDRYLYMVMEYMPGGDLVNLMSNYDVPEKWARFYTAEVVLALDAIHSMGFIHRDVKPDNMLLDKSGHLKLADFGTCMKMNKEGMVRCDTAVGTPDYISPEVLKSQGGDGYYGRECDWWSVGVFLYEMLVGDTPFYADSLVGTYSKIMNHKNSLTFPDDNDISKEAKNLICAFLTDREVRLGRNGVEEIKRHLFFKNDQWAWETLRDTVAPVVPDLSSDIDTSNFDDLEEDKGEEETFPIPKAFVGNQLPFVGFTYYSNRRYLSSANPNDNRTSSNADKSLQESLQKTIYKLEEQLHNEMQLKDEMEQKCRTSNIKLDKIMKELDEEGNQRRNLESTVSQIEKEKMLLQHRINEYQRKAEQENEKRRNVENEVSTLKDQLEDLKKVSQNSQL
Chain of recombinant ROCK2 (amino acids 1-552) (O75116 1-552): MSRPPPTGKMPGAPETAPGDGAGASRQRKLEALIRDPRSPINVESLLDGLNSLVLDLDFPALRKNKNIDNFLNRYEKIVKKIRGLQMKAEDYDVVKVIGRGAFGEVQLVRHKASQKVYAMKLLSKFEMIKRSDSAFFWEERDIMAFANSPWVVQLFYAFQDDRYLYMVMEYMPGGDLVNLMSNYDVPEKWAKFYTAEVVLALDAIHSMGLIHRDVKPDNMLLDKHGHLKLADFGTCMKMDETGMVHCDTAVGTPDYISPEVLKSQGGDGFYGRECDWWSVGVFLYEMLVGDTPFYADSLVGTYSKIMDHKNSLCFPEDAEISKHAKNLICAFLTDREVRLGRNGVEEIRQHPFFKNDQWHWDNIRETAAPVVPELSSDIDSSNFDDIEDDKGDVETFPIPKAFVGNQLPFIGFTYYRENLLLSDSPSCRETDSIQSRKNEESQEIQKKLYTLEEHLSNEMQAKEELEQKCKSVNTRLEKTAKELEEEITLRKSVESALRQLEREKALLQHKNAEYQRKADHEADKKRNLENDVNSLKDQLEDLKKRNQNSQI

pIC50 [2] | pIC50 [3] | IC50 ([4]; A7R5 cells) | IC50 [4, 5] | inhibition at 0.5 µM [2] | inhibition at 0.5 µM [3] | pIC50 ([4]; Rattus norvegicus, A7R5, A7R5 cells, ppMlc (T18/S19), in-cell ELISA, read-out: ppMlc IC50) | SMILES | pIC50 [1]
6.62 | 6.12 | 5550 nM | 4170 nM | – | – | – | COCCN[C@H](C(=O)Nc1ccc(-c2cn[nH]c2)cc1)c1cccc(OC)c1 [Example 59, (S)—N-(4-(1H-pyrazol-4-yl)phenyl)-2-((2-methoxyethyl)amino)-2-(3-methoxyphenyl)acetamide] | < 5.30
8.74 | 8.52 | – | 58 nM | – | – | – | CNCCN[C@@H](C(=O)Nc1ccc(-c2cn[nH]c2)cc1)c1cccc(OC)c1 [Example 62, (R)—N-(4-(1H-pyrazol-4-yl)phenyl)-2-(3-methoxyphenyl)-2-((2-(methylamino)ethyl)amino)acetamide] | 6.97
7.01 | 6.59 | – | 695 nM | – | – | – | COc1cccc([C@H](NCCN(C)C)C(=O)Nc2ccc(-c3cn[nH]c3)cc2)c1 [Example 60, (S)—N-(4-(1H-pyrazol-4-yl)phenyl)-2-((2-(dimethylamino)ethyl)amino)-2-(3-methoxyphenyl)acetamide] | 5.85
8.00 | – | – | 504 nM | 89% | 92% | – | CNC(C(=O)Nc1ccc(-c2cn[nH]c2)cc1)c1cccc(F)c1 (stereo not drawn) [Example 18, N-(4-(1H-pyrazol-4-yl)phenyl)-2-(3-fluorophenyl)-2-(methylamino)acetamide] | 6.33
7.54 | 7.07 | – | 913 nM | – | – | – | CNC(C(=O)Nc1ccc(-c2cn[nH]c2)cc1)c1ccc2c(C)n[nH]c2c1 (stereo not drawn) [Example 33, N-(4-(1H-pyrazol-4-yl)phenyl)-2-(3-methyl-1H-indazol-6-yl)-2-(methylamino)acetamide] | 5.83
7.66 | 7.09 | – | 548 nM | – | – | – | CNCCN[C@H](C(=O)Nc1ccc(-c2cn[nH]c2)cc1)c1cccc(OC)c1 [Example 63, (S)—N-(4-(1H-pyrazol-4-yl)phenyl)-2-(3-methoxyphenyl)-2-((2-(methylamino)ethyl)amino)acetamide] | 6.20
8.52 | 7.92 | – | 517 nM | – | – | 6.29 | CNC(C(=O)Nc1ccc(-c2cn[nH]c2)cc1)c1ccccc1OC (stereo not drawn) [Example 8, N-(4-(1H-pyrazol-4-yl)phenyl)-2-(2-methoxyphenyl)-2-(methylamino)acetamide] | –
7.92 | – | – | 222 nM | – | – | – | CN[C@@H](C(=O)Nc1ccc(-c2cn[nH]c2)cc1)c1cccc(OC)c1 [Example 3, (R)—N-(4-(1H-pyrazol-4-yl)phenyl)-2-(3-methoxyphenyl)-2-(methylamino)acetamide] | 6.80

Continued, compound first:

SMILES | pIC50 [2] | pIC50 [3] | IC50 ([4]; A7R5 cells) | IC50 [4, 5] | inhibition at 0.5 µM [2] | inhibition at 0.5 µM [3] | pIC50 ([4]; Rattus norvegicus, A7R5, A7R5 cells, ppMlc (T18/S19), in-cell ELISA, read-out: ppMlc IC50) | pIC50 [1]
CNC(C(=O)Nc1ccc(-c2cn[nH]c2)cc1)c1ccc(F)cc1 (stereo not drawn) [Example 19, N-(4-(1H-pyrazol-4-yl)phenyl)-2-(4-fluorophenyl)-2-(methylamino)acetamide] | 8.32 | – | – | 355 nM | 90% | 96% | – | 6.72
COCCN[C@@H](C(=O)Nc1ccc(-c2cn[nH]c2)cc1)c1cccc(OC)c1 [Example 58, (R)—N-(4-(1H-pyrazol-4-yl)phenyl)-2-((2-methoxyethyl)amino)-2-(3-methoxyphenyl)acetamide] | 7.92 | 7.24 | – | 484 nM | – | – | – | 7.13
CNC(C(=O)Nc1ccc(-c2cn[nH]c2)cc1)c1cccc(OC(F)F)c1 (stereo not drawn) [Example 24, N-(4-(1H-pyrazol-4-yl)phenyl)-2-(3-(difluoromethoxy)phenyl)-2-(methylamino)acetamide] | 7.66 | 7.06 | – | 334 nM | 97% | – | – | 5.77
COc1cccc([C@@H](NCCN(C)C)C(=O)Nc2ccc(-c3cn[nH]c3)cc2)c1 [Example 61, (R)—N-(4-(1H-pyrazol-4-yl)phenyl)-2-((2-(dimethylamino)ethyl)amino)-2-(3-methoxyphenyl)acetamide] | 8.54 | 8.11 | – | 35 nM | – | – | – | 7.32
CNC(=O)CNC(C(=O)Nc1ccc(-c2cn[nH]c2)cc1)c1cccc(OC)c1 (stereo not drawn) [Example 44, N-(4-(1H-pyrazol-4-yl)phenyl)-2-(3-methoxyphenyl)-2-((2-(methylamino)-2-oxoethyl)amino)acetamide] | 7.38 | – | – | 2020 nM | – | – | – | 5.65
COc1cccc(C(NCCN2CCCC2)C(=O)Nc2ccc(-c3cn[nH]c3)cc2)c1 (stereo not drawn) [Example 52, N-(4-(1H-pyrazol-4-yl)phenyl)-2-(3-methoxyphenyl)-2-((2-(pyrrolidin-1-yl)ethyl)amino)acetamide] | 7.77 | – | – | 106 nM | – | – | – | 6.17
CNC(C(=O)Nc1cc(OC)c(-c2cn[nH]c2)cc1F)c1cccc(OC)c1 (stereo not drawn) [Example 66, N-(2-fluoro-5-methoxy-4-(1H-pyrazol-4-yl)phenyl)-2-(3-methoxyphenyl)-2-(methylamino)acetamide] | 7.74 | 7.25 | – | 332 nM | – | – | – | 6.40
CNC(C(=O)Nc1ccc(-c2cn[nH]c2)cc1)c1cccc(C(=O)O)c1 (stereo not drawn) [Example 32, 3-(2-((4-(1H-pyrazol-4-yl)phenyl)amino)-1-(methylamino)-2-oxoethyl)benzoic acid] | 7.51 | – | – | > 5000 nM | – | – | – | < 5.30
CNC(C(=O)Nc1ccc(-c2cn[nH]c2)cc1)c1cccc(Cl)c1 (stereo not drawn) [Example 20, N-(4-(1H-pyrazol-4-yl)phenyl)-2-(3-chlorophenyl)-2-(methylamino)acetamide] | 8.77 | – | – | 263 nM | 94% | 98% | – | 6.80

Reference: US11479533B2, “Inhibitors of Rho associated coiled-coil containing protein kinase” (KADMON CORPORATION, LLC, priority 2017, dated 2022)
